In test [1] the test system is isolated mouse liver mitochondria with Drp1 recombinant protein. Nature of the test: Membrane potential of isolated mouse liver mitochondria incubated with Drp1 (TMRM). As to conditions: P110 1 μM, NAC 2.5 mM, FIG. 6D bottom. It is filed as biochemical. On the procedure:
(§1) Mitochondrial membrane potential was also determined using TMRM (tetramethylrhodamine methylester). Fifty μg of mitochondria were incubated with recombinant Drp1 (50 ng) followed by incubation with TMRM (0.5 μM) in the presence or absence of P110 (1 μM) or NAC (2.5 mM). Fluoresence detection was performed using black 96-well plates in a fluorescence microplate reader at 560 nm excitation and 690 nm emission and potential was assessed by quenching of the fluorescent signal. The data are presented as mean±S.E. of percentage relative to control mitochondria from three independent experiments (FIG. 6B, #, p<0.05 vs. control cells; *, p<0.05; **, P<0.01 vs. MPP+- or CCCP-treated cells). Isolated mouse liver mitochondria (50 μg) were incubated with Drp1 recombinant protein (50 ng) in the presence or absence of P110 (1 μM). A kinetic change of mitochondrial superoxide production was determined by using MITOSOX™ (red mitochondrial superoxide indicator). The data are presented as mean±S.E. of percentage relative to the value at basal level from three independent experiments (FIG. 6C, #, p<0.05 vs. control mitochondria; *, p<0.05 vs. mitochondria with the addition of Drp1). Mitochondrial membrane potential of isolated mouse liver mitochondria was determined by TMRM, as described above, in the indicated groups. NAC (2.5 mM) was used as a positive control (FIG. 6D). Protein levels of cytochrome c in the mitochondria were determined by western blot analysis with anti-cytochrome c antibodies in the indicated groups (insert, FIG. 6D). Total ROS production was determined by staining SH-SY5Y cells with CM2HDCFA (1 μM […] at 37° C.) in the indicated groups. The data are presented as mean±S.E. of percentage relative to control group from three independent experiments (FIG. 6E, *, p<0.05 vs. either MPP+ or CCCP treated-group; #, p<0.05 vs. control group).
The mitochondrial membrane potential of isolated mouse liver mitochondria was then measured in the presence or absence of P110.

For test [2], the target named is Recombinant protein Drp1 (Homo sapiens, UniProt O00429). Nature of the test: In vitro GTPase assay, recombinant Drp1. It is filed as biochemical. As to conditions: for inhibition in the GTPase activity of recombinant Drp1: recombinant Drp1 25 ng, 30 min incubation with peptide, FIG. 2A. Here is the method: (§2) First, mitochondrial fission inhibitor constructs were tested to determine what, if any, effects each peptide had on enzyme (GTPase) activity. Recombinant protein Drp1, Mfn1, OPA1 or dynamin-1 (25 ng) was incubated with the indicated modulator peptides for 30 min. GTPase activity was assayed in vitro using a GTPase assay kit (Innova Biosciences, Littleton, USA, or Novus Biologicals, Littleton, Colo.) according to manufacturer's instructions.
Chain of Recombinant protein Drp1 (O00429 1-710 isoform O00429-3): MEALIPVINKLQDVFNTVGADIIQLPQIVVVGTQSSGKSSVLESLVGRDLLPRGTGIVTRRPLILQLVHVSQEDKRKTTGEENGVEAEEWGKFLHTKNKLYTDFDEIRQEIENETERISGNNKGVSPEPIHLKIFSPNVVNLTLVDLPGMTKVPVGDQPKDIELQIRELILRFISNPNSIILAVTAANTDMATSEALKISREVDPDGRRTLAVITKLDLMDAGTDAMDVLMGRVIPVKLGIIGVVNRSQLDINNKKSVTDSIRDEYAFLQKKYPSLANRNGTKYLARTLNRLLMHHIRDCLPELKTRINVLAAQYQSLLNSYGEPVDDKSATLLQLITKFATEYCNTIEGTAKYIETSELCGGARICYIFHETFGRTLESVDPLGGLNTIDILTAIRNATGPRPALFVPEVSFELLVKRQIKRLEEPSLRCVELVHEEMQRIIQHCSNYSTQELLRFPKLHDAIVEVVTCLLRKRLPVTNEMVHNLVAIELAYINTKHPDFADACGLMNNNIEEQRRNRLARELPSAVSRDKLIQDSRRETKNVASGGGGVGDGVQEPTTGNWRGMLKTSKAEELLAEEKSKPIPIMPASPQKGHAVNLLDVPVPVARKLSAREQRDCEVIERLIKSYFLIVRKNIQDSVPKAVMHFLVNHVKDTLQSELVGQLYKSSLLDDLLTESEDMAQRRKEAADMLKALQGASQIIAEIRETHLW

The subject of test [3] is SH-SY5Y cells. As to conditions: peptides 1 μM each, MPP+ 2 mM for 24 hours, FIG. 9E.
Description: Cell viability of stressed SH-SY5Y cells was measured by MTT assay.
In another experiment, Human SH-SY5Y cells were treated with Drp1 P108, P109 or P110 or Fis1 P111, P112 or P113 (0.5 μM) for 15 min followed by treatment with MPP+(1 mM for 24 hrs). The cell viability was then determined by MTT test.
Test [4] deals with T1, Mfn1 (Homo sapiens, UniProt Q8IWA4).
T1 sequence (Q8IWA4 1-741): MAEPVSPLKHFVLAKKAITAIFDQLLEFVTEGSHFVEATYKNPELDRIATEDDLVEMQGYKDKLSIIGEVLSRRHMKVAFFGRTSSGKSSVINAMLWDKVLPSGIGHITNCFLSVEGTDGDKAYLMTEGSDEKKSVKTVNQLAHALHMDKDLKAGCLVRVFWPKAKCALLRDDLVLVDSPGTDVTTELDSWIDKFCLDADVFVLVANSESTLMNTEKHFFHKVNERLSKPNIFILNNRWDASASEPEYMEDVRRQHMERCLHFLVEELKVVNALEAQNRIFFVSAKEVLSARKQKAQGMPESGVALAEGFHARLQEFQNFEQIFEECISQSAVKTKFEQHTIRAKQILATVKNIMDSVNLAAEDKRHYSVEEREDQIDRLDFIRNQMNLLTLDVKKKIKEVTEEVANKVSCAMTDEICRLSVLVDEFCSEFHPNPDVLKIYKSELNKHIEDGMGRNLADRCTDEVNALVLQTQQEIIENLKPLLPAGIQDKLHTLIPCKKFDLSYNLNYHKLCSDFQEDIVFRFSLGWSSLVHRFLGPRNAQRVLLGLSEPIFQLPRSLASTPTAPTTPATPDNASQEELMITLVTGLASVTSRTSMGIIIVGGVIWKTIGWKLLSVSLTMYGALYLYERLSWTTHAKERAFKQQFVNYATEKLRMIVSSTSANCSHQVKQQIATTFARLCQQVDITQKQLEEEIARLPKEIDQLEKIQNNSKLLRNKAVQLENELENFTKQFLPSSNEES
Nature of the test: In vitro GTPase assay, recombinant Mfn1. Type of test: biochemical. As to conditions: p<0.05, n=3, FIG. 2F. Here is the method: as §2

The target of test [5] is T2, OPA1 (Homo sapiens, UniProt O60313).
T2 sequence (O60313 88-960): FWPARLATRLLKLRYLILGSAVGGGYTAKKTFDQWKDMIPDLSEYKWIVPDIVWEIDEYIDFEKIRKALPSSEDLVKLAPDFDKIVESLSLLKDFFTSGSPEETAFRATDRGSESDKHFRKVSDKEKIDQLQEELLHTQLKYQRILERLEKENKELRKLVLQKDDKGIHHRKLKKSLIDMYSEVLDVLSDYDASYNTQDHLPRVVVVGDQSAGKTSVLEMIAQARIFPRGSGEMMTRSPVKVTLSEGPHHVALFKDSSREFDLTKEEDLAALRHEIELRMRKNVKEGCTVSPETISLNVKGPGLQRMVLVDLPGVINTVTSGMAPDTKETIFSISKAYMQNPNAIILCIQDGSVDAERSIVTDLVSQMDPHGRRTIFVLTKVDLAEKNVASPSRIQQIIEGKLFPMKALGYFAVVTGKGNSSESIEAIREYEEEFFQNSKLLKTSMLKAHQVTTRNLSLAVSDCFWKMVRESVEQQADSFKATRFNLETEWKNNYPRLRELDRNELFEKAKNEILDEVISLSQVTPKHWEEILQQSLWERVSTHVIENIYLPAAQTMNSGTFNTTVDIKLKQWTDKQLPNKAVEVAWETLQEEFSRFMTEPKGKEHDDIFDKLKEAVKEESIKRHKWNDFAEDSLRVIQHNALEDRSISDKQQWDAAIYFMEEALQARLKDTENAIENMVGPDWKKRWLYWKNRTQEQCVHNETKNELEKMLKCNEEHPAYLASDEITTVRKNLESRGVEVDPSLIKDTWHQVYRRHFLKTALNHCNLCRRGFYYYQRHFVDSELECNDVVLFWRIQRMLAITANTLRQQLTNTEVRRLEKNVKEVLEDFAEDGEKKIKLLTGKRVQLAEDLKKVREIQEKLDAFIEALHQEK
Put plainly: In vitro GTPase assay, recombinant OPA1. It is filed as biochemical. As to conditions: p<0.05, n=3, FIG. 2F. On the procedure:
as §2

The test system of test [6] is isolated mouse liver mitochondria with Drp1 recombinant protein. Nature of the test: Superoxide production of isolated mouse liver mitochondria after addition of recombinant Drp1. As to conditions: isolated mouse liver mitochondria 50 μg, Drp1 50 ng, P110 1 μM, p<0.05, n=3, FIG. 6C. Type of test: biochemical. On the procedure:
as §1, with “The data are presented as mean±S.E. of percentage relative to the value at basal level from three independent experiments (FIG. 6C, #, p<0.05 vs. control mitochondria; *, p<0.05 vs. mitochondria with the addition of Drp1).” left out, “NAC (2.5 mM) was used as a positive control (FIG. 6D).” left out, “The data are presented as mean±S.E. of percentage relative to control group from three independent experiments (FIG. 6E, *, p<0.05 vs. either MPP+ or CCCP treated-group; #, p<0.05 vs. control group).” left out

The target in test [7] is T3, Dnm1 (yeast Drp1) (Saccharomyces cerevisiae, UniProt P54861).
T3 sequence (P54861 1-757): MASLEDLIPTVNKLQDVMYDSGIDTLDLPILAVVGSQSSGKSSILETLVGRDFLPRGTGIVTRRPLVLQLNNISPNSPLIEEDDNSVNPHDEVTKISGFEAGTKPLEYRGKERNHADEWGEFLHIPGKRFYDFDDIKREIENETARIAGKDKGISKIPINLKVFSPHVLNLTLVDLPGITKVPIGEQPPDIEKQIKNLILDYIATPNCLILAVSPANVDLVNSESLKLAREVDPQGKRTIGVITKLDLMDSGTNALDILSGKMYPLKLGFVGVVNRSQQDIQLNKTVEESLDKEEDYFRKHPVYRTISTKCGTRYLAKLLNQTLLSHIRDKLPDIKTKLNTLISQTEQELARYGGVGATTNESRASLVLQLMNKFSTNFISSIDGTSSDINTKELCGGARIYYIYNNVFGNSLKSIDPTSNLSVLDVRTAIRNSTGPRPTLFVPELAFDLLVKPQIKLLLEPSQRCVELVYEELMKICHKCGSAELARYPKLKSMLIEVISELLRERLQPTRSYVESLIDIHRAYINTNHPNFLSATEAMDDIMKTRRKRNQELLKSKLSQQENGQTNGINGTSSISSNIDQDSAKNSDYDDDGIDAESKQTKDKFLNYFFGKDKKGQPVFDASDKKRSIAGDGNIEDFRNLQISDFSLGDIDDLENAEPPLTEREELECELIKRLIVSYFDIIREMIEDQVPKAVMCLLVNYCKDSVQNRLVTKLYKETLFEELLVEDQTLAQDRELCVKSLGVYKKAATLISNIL
As to conditions: yeast and mammals, by blocking Dnm1 polymerization; cited from earlier work.

Residues, ends and D or L forms follow the SMILES beside them.

Take `CC(=O)N[C@@H](CS)C(=O)O` [NAC, N-Acetyl cysteine, reference compound]: the “mitochondrial membrane potential (MMP) of isolated mitochondria after Drp1 addition” value in test [1] is “prevented the dissipated MMP”.
`N=C(N)NCCC[C@H](NC(=O)[C@H](CCCCN)NC(=O)[C@H](CCCCN)NC(=O)[C@H](CCCNC(=N)N)NC(=O)[C@H](CCCNC(=N)N)NC(=O)[C@H](CCC(N)=O)NC(=O)[C@H](CCCNC(=N)N)NC(=O)[C@H](CCCNC(=N)N)NC(=O)[C@@H](N)CCCNC(=N)N)C(=O)NCC(=O)N[C@@H](Cc1ccc(O)cc1)C(=O)NCC(=O)NCC(=O)N[C@@H](CCCCN)C(=O)NCC(=O)N[C@@H](CO)C(=O)N[C@@H](CCCCN)C(=O)N[C@@H](CCC(=O)O)C(=O)N[C@@H](CCC(=O)O)C(=O)N[C@@H](CCC(N)=O)C(=O)N[C@@H](CCCNC(=N)N)C(=O)N[C@@H](CC(=O)O)C(N)=O` [P112] (H-RRRQRRKKRGYGGKGSKEEQRD-NH2): the “specifically inhibited Drp1 GTPase activity” value in test [2] (in vitro GTPase assay, n=3, first statement of b271) turned out to be 50%. Also, the “inhibition in the GTPase activity of recombinant Drp1” value (“inhibition in the GTPase activity” for short) in test [2] was “no significant effect”.
Regarding “RRRQRRKKRGYGGELLPKG (RRRQRRKKRGYGGELLPKGS) [P113]”, in test [2], the “inhibition in the GTPase activity” value is given as “no significant effect”. Also, the “cell viability (MTT)” value in test [3] is recorded as “no significant effect”.
On to `CC(C)C[C@H](NC(=O)[C@H](CCCCN)NC(=O)CNC(=O)CNC(=O)[C@H](Cc1ccc(O)cc1)NC(=O)CNC(=O)[C@H](CCCNC(=N)N)NC(=O)[C@H](CCCCN)NC(=O)[C@H](CCCCN)NC(=O)[C@H](CCCNC(=N)N)NC(=O)[C@H](CCCNC(=N)N)NC(=O)[C@H](CCC(N)=O)NC(=O)[C@H](CCCNC(=N)N)NC(=O)[C@H](CCCNC(=N)N)NC(=O)[C@@H](N)CCCNC(=N)N)C(=O)N[C@@H](CO)C(=O)N[C@@H](C)C(=O)N[C@@H](CCCNC(=N)N)C(=O)N[C@@H](CCC(=O)O)C(=O)N[C@@H](CCC(N)=O)C(=O)N[C@@H](CCCNC(=N)N)C(=O)N[C@@H](CC(=O)O)C(N)=O` [P109] (H-RRRQRRKKRGYGGKLSAREQRD-NH2), for which the “inhibition in the GTPase activity” value in test [2] came out at 40%. Besides, the “GTPase activity of MFN1 (increased)” value in test [4] is given as 229%±10. The “GTPase activity of OPA1 (increased)” value in test [5] is reported as 177%±13.
“Drp1 K38A: dominant negative mutant of Drp1, which inhibits Drp1 GTPase activity and fission activity; positive control”: the “inhibition in the GTPase activity” value in test [2] is about 70%. The “Drp1-induced ROS (superoxide) elevation in the mitochondria” value in test [6] is on record as “abolished”. Also, the “mitochondrial membrane potential (MMP) of isolated mitochondria after Drp1 addition” value in test [1] is “similar”.
Take `COc1cc(-n2c(=S)[nH]c3ccccc3c2=O)c(Cl)cc1Cl` [Mdivi-1]: the mitochondrial division entry in test [7] is recorded as “inhibits mitochondrial division”.

(Values after patent US10912815B2, “Inhibitors of mitochondrial fission and methods of use thereof” (The Board of Trustees of the Leland Stanford Junior …, priority 2011, dated 2021).)
